From patent US7332312B2, “Carbonyl reductase, gene thereof and use of the same” (priority 2002, dated 2008)

test system: reductase RRG; assay: Substrate specificity of RRG: reducing activity against various carbonyl compounds; format: biochemical, Rhodotorula glutinis var. dairenensis IFO 0415; conditions: pH 6.5

`CCOC(=O)C(Cl)C(=O)c1ccccc1` (stereo not drawn) [ethyl 2-chloro-3-oxo-3-phenpropionate, ethyl 2-chloro-3-oxo-3-phen propionate] was tested, and the “% Activity” value was 34%.

same assay, conditions: relative to reducing activity with 2-chloro-1-(3′-chlorophenyl)ethanone taken as 100%; substrate 1 mM, NADPH 0.25 mM, pH 6.5, 30° C.

First: O=CC(O)CO (racemic) [DL-glyceraldehyde]
Second: O=C1CCN(Cc2ccccc2)C1 [1-benyl-3-pyrolidinone]
The “% Activity” value of the first is lower: 1% for the first, 4% for the second.

First: CCC(=O)Cc1ccccc1 [1-phenyl-2-butanone]
Second: CC(=O)c1ccccn1 [2-acetylpyridine]
The “% Activity” value of the first is lower: 20% for the first, 60% for the second.

Going from `CCC(C)=O` [2-butanone] to `O=C(CCl)c1cccc(Cl)c1` [2-chloro-1-(3′-chlorophenyl)ethanone], the “% Activity” value rises from 10% to 100%.

Going from `CCCCCC(C)=O` [2-heptanone] to `CCCCC(C)=O` [2-hexanone], the “% Activity” value rises from 11% to 13%.

Compared with `O=C(CO)c1ccccc1` [2-hydroxyacetophenone], `CCC(=O)C(=O)O` [2-keto-n-butyric acid] is lower in “% Activity” value: 34% for the first, 7% for the second.

First: O=Cc1ccccn1 [2-pyridinecarbaldehyde]
Second: COc1ccc(C(C)=O)cc1OC [3,4-dimethoxyacetophenone]
The “% Activity” value of the first is lower: 45% for the first, 46% for the second.

Going from `CC(=O)c1cccnc1` [3-acetylpyridine] to `O=CCCc1ccccc1` [3-phenylpropionaldehyde], the “% Activity” value falls from 28% to 10%.

Compared with `CC(=O)c1ccncc1` [4-acetylpyridine], `CC(=O)c1ccc(F)cc1` [4-fluoroacetophenone] is lower in “% Activity” value: 44% for the first, 30% for the second.

First: CC(=O)CCO [4-hydroxy-2-butanone]
Second: CC(=O)CC(C)C [4-methyl-2-pentanone]
The “% Activity” value of the first is higher: 11% for the first, 10% for the second.

Compared with `CC(C)=O` [acetone], `CC(=O)CC(C)=O` [acetylacetone] is higher in “% Activity” value: 11% for the first, 23% for the second.

Going from `O=Cc1ccccc1` [benzaldehyde] to `O=C(c1ccccc1)C(O)c1ccccc1` (stereo not drawn) [benzoin], the “% Activity” value falls from 25% to 9%.

Going from `CC(=O)CC(=O)OCc1ccccc1` [benzyl acetoacetate] to `CC12CCC(C(=O)C1=O)C2(C)C` (stereo not drawn) [camphorquinone], the “% Activity” value rises from 30% to 33%.

First: O=C1CCCC1 [cyclopentanone]
Second: CC(=O)C1CC1 [cyclopropyl methyl ketone]
The “% Activity” value of the first is higher: 9% for the first, 3% for the second.

First: CC(=O)C(C)=O [diacetyl]
Second: CCC(=O)CC [diethyl ketone]
The “% Activity” value of the first is lower: 4% for the first, 17% for the second.

Compared with `CC1(C)COC(=O)C1=O` [dihydro-4,4-dimethyl-furandio], `CCOC(=O)C(C)=O` [ethly pyruvate] is higher in “% Activity” value: 238% for the first, 247% for the second.

Going from `CCOC(=O)C(Cl)C(C)=O` (stereo not drawn) [ethyl 2-chloroacetoacetate] to `CCOC(=O)C(C)C(C)=O` (stereo not drawn) [ethyl 2-methylacetoacetate], the “% Activity” value falls from 111% to 12%.

Going from `CCOC(=O)C1CCC(=O)C1` (stereo not drawn) [ethyl 3-oxocyclopentanecarboxylate] to `CCOC(=O)CC(=O)COC(C)=O` [ethyl 4-acetoxyacetoacetate], the “% Activity” value rises from 32% to 46%.

Going from `CCOC(=O)CC(=O)CN=[N+]=[N-]` [ethyl 4-azideacetoacetate] to `CCOC(=O)CC(=O)COCc1ccccc1` [ethyl 4-benzyloxyacetoacetate], the “% Activity” value rises from 11% to 58%.

Compared with `CCOC(=O)CC(=O)CBr` [ethyl 4-bromoacetoacetate], `CCOC(=O)CC(=O)CCl` [ethyl 4-chloroacetoacetate] is lower in “% Activity” value: 33% for the first, 12% for the second.

Compared with `CCOC(=O)CC(=O)CO` [ethyl 4-hydroxyacetoacetate], `CCOC(=O)CC(C)=O` [ethyl acetoacetate] is higher in “% Activity” value: 22% for the first, 35% for the second.

First: CCOC(=O)CC(=O)c1ccccc1 [ethyl benzoylylacetate]
Second: O=CCCCC=O [glutaraldehyde]
The “% Activity” value of the first is higher: 15% for the first, 2% for the second.

Compared with `CC(=O)CO` [hydroxyacetone], `CC1=CC(=O)CC(C)(C)C1` [isophorone] is lower in “% Activity” value: 16% for the first, 1% for the second.

Going from `CC(=O)CCC(=O)O` [levulinic acid] to `O=Cc1cccc(Cl)c1` [m-chlorobenzaldehyde], the “% Activity” value rises from 31% to 45%.

First: CC(=O)c1cccc(O)c1 [m-hydroxyacetophenone]
Second: CC(=O)c1cccc([N+](=O)[O-])c1 [m-nitroacetophenone]
The “% Activity” value of the first is lower: 16% for the first, 35% for the second.

First: O=Cc1cccc([N+](=O)[O-])c1 [m-nitrobenzaldehyde]
Second: COC(=O)C1CCCC1=O (stereo not drawn) [methyl 2-oxocyclopentanecarboxylate, methyl 2-oxocyclopentane carboxylate]
The “% Activity” value of the first is higher: 64% for the first, 11% for the second.

First: CCCCCCC(=O)C(=O)OC [methyl 2-oxooctanoate]
Second: COC(=O)CC(=O)CCl [methyl 4-chloroacetoacetate]
The “% Activity” value of the first is lower: 3% for the first, 81% for the second.

Compared with `COC(=O)CC(C)=O` [methyl acetoacetate], `CC(=O)C=O` [methyl glyoxal] is lower in “% Activity” value: 14% for the first, 13% for the second.

Going from `CCCC(C)=O` [methyl n-propylketone] to `COC(=O)C(C)=O` [methyl pyrucvate], the “% Activity” value rises from 12% to 208%.

First: CCCC=O [n-butylaldhyde]
Second: CCCC(=O)c1ccccc1 [n-butyrophenone]
The “% Activity” value of the first is higher: 20% for the first, 8% for the second.

Compared with `CCCCCC=O` [n-hexylaldehyde], `CCCCCCCCOC(=O)CC(=O)CCl` [n-octyl 4-chloroacetoacetate] is higher in “% Activity” value: 10% for the first, 72% for the second.

Going from `O=Cc1ccccc1Cl` [o-chlorobenzaldehyde] to `O=Cc1ccccc1[N+](=O)[O-]` [o-nitrobenza1dehyde], the “% Activity” value rises from 24% to 31%.

Compared with `O=C(O)CC(=O)C(=O)O` [oxalacetic acid], `CC(=O)c1ccc(Cl)cc1` [p-chloroacetophenone] is lower in “% Activity” value: 24% for the first, 5% for the second.

First: O=Cc1ccc(Cl)cc1 [p-chlorobenzaldehyde]
Second: O=Cc1ccc([N+](=O)[O-])cc1 [p-nitrobenzaldhyde]
The “% Activity” value of the first is lower: 11% for the first, 162% for the second.

First: CCC=O [propionaldehyde]
Second: CCC(=O)c1ccccc1 [propiophenone]
The “% Activity” value of the first is lower: 4% for the first, 14% for the second.

Going from `O=Cc1ccncc1` [pyridine-4-aldehyde] to `CC(=O)CC(=O)OC(C)(C)C` [tert-butyl acetoacetate], the “% Activity” value falls from 55% to 1%.

First: O=C1COC(=O)C1 [tetrahydrofuran-2,4-dione]
Second: O=C(/C=C/c1ccccc1)c1ccccc1 [trans-calcone]
The “% Activity” value of the first is lower: 14% for the first, 22% for the second.

Going from `O=C(c1ccccc1)C(F)(F)F` [α,α,α-trifluoroacetophenon] to methyl 2-eteneacetoacetate, the “% Activity” value falls from 83% to 5%.
